What all share (type): functional
In one assay the test system is Streptococcus pyogenes. As to the kind of experiment: Antimicrobial activity against Streptococcus pyogenes MTCC 442 after 24 and 48 hr by serial broth dilution method.
For a further assay, the system named is Aspergillus clavatus. Briefly: Antimicrobial activity against Aspergillus clavatus MTCC 1323.
A further assay deals with Pseudomonas aeruginosa. Briefly: Antimicrobial activity against Pseudomonas aeruginosa MTCC 1688 after 24 and 48 hr by serial broth dilution method. (In broth dilution the organism is exposed to a series of concentrations in liquid medium.)
The subject of a further assay is Aspergillus niger. As to the kind of experiment: Antimicrobial activity against Aspergillus niger MTCC 282.
A further assay relates to Candida albicans. As to the kind of experiment: Antimicrobial activity against Candida albicans MTCC 227.
For another assay, the system named is Staphylococcus aureus. As to the kind of experiment: Antimicrobial activity against Staphylococcus aureus MTCC 96 after 24 and 48 hr by serial broth dilution method.
Another assay concerns Escherichia coli. Briefly: Antimicrobial activity against Escherichia coli MTCC 443 after 24 and 48 hr by serial broth dilution method.

In brackets after ≈: the same amount, converted by molar mass.

By MIC is commonly meant the smallest concentration in the dilution series that meets the test's criterion for growth inhibition. Read a high MIC as weaker potency. `Cc1ccc(/C=C/C(=O)N2N=C(c3ccc([N+](=O)[O-])cc3)OC2c2cc3ccccc3nc2Cl)cc1` (stereo unspecified): the MIC in the assay on Streptococcus pyogenes stood at 250 µg/mL (≈ 501 µM); in the assay with Aspergillus clavatus, 1000 µg/mL (≈ 2000 µM); in the assay with Pseudomonas aeruginosa, 100 µg/mL (≈ 200 µM); against Aspergillus niger it was 100 µg/mL (≈ 200 µM); in the assay on Candida albicans, 250 µg/mL (≈ 501 µM); against Staphylococcus aureus, 200 µg/mL (≈ 401 µM). In the assay on Escherichia coli, this compound displayed an MIC of 200 µg/mL (≈ 401 µM).
For `COc1ccc(/C=C/C(=O)N2N=C(c3ccc([N+](=O)[O-])cc3)OC2c2cc3ccccc3nc2Cl)cc1` (stereo unspecified), the minimal inhibitory concentration (MIC) was determined as 100 µg/mL (≈ 194 µM) in the assay with Streptococcus pyogenes; 100 µg/mL (≈ 194 µM) against Aspergillus clavatus; 500 µg/mL (≈ 971 µM) with Pseudomonas aeruginosa; 1000 µg/mL (≈ 1940 µM) with Aspergillus niger; 500 µg/mL (≈ 971 µM) against Candida albicans; 100 µg/mL (≈ 194 µM) with Staphylococcus aureus. This compound also displayed an MIC in the assay on Escherichia coli of 100 µg/mL (≈ 194 µM).
Regarding `COc1cc(/C=C/C(=O)N2N=C(c3ccc([N+](=O)[O-])cc3)OC2c2cc3ccccc3nc2Cl)cc(OC)c1OC` (stereo unspecified), the MIC in the assay on Streptococcus pyogenes was determined as 500 µg/mL (≈ 870 µM); against Aspergillus clavatus it was 100 µg/mL (≈ 174 µM); against Pseudomonas aeruginosa it was 200 µg/mL (≈ 348 µM); with Aspergillus niger, 100 µg/mL (≈ 174 µM); with Candida albicans, 100 µg/mL (≈ 174 µM); against Staphylococcus aureus it was 500 µg/mL (≈ 870 µM). In addition, inhibition of growth against Escherichia coli (MIC) required 200 µg/mL (≈ 348 µM).
On to `O=C(/C=C/c1ccccc1Cl)N1N=C(c2ccc([N+](=O)[O-])cc2)OC1c1cc2ccccc2nc1Cl` (stereo unspecified), for which the minimal inhibitory concentration (MIC) stood at 500 µg/mL (≈ 963 µM) against Streptococcus pyogenes; 500 µg/mL (≈ 963 µM) against Aspergillus clavatus; 500 µg/mL (≈ 963 µM) in the assay on Pseudomonas aeruginosa; 500 µg/mL (≈ 963 µM) in the assay on Aspergillus niger; 250 µg/mL (≈ 481 µM) in the assay with Candida albicans; 500 µg/mL (≈ 963 µM) against Staphylococcus aureus. For the same compound, 500 µg/mL (≈ 963 µM) was the least that counted as inhibitory with Escherichia coli (MIC).
With `O=C(/C=C/c1cccc(Cl)c1)N1N=C(c2ccc([N+](=O)[O-])cc2)OC1c1cc2ccccc2nc1Cl` (stereo unspecified), the MIC with Streptococcus pyogenes was 100 µg/mL (≈ 193 µM); in the assay on Aspergillus clavatus, 500 µg/mL (≈ 963 µM); against Pseudomonas aeruginosa it was 200 µg/mL (≈ 385 µM); against Aspergillus niger, 100 µg/mL (≈ 193 µM); against Candida albicans it was 100 µg/mL (≈ 193 µM); with Staphylococcus aureus it was 100 µg/mL (≈ 193 µM). Also, inhibition of growth against Escherichia coli (MIC) required 100 µg/mL (≈ 193 µM).
In the case of `O=C(/C=C/c1ccc(Cl)cc1)N1N=C(c2ccc([N+](=O)[O-])cc2)OC1c1cc2ccccc2nc1Cl` (stereo unspecified), the MIC against Streptococcus pyogenes came out at 500 µg/mL (≈ 963 µM); against Aspergillus clavatus, 1000 µg/mL (≈ 1930 µM); with Pseudomonas aeruginosa it was 100 µg/mL (≈ 193 µM); with Aspergillus niger, 200 µg/mL (≈ 385 µM); in the assay on Candida albicans, 100 µg/mL (≈ 193 µM); against Staphylococcus aureus, 1000 µg/mL (≈ 1930 µM). The lowest concentration to inhibit growth with Escherichia coli (MIC) was 200 µg/mL (≈ 385 µM).
`O=C(/C=C/c1ccccc1[N+](=O)[O-])N1N=C(c2ccc([N+](=O)[O-])cc2)OC1c1cc2ccccc2nc1Cl` (stereo unspecified): the minimum inhibitory concentration (MIC) in the assay on Streptococcus pyogenes came out at 200 µg/mL (≈ 377 µM); with Aspergillus clavatus it was 100 µg/mL (≈ 189 µM); in the assay with Pseudomonas aeruginosa it was 50 µg/mL (≈ 94.4 µM); with Aspergillus niger it was 500 µg/mL (≈ 944 µM); in the assay with Candida albicans, 500 µg/mL (≈ 944 µM); against Staphylococcus aureus, 500 µg/mL (≈ 944 µM). Also, the MIC in the assay with Escherichia coli is 50 µg/mL (≈ 94.4 µM).
Regarding `O=C(/C=C/c1cccc([N+](=O)[O-])c1)N1N=C(c2ccc([N+](=O)[O-])cc2)OC1c1cc2ccccc2nc1Cl` (stereo unspecified), the minimum inhibitory concentration (MIC) with Streptococcus pyogenes was 100 µg/mL (≈ 189 µM); in the assay with Aspergillus clavatus it was 500 µg/mL (≈ 944 µM); against Pseudomonas aeruginosa, 500 µg/mL (≈ 944 µM); against Aspergillus niger, 100 µg/mL (≈ 189 µM); in the assay with Candida albicans, 100 µg/mL (≈ 189 µM); against Staphylococcus aureus it was 500 µg/mL (≈ 944 µM). Besides, 1000 µg/mL (≈ 1890 µM) was the least that counted as inhibitory against Escherichia coli (MIC).
Consider `O=C(/C=C/c1ccc([N+](=O)[O-])cc1)N1N=C(c2ccc([N+](=O)[O-])cc2)OC1c1cc2ccccc2nc1Cl` (stereo unspecified), for which the MIC in the assay with Streptococcus pyogenes is 500 µg/mL (≈ 944 µM); with Aspergillus clavatus, 100 µg/mL (≈ 189 µM); against Pseudomonas aeruginosa it was 500 µg/mL (≈ 944 µM); against Aspergillus niger, 1000 µg/mL (≈ 1890 µM); in the assay with Candida albicans, 500 µg/mL (≈ 944 µM); against Staphylococcus aureus it was 100 µg/mL (≈ 189 µM). The compound also yielded an MIC against Escherichia coli of 100 µg/mL (≈ 189 µM).
On to `O=C(/C=C/c1ccccc1O)N1N=C(c2ccc([N+](=O)[O-])cc2)OC1c1cc2ccccc2nc1Cl` (stereo unspecified), for which the MIC against Streptococcus pyogenes was found to be 250 µg/mL (≈ 499 µM); with Aspergillus clavatus, 500 µg/mL (≈ 998 µM); against Pseudomonas aeruginosa, 250 µg/mL (≈ 499 µM); in the assay on Aspergillus niger, 500 µg/mL (≈ 998 µM); in the assay on Candida albicans, 1000 µg/mL (≈ 2000 µM); with Staphylococcus aureus, 500 µg/mL (≈ 998 µM). For the same compound, in the assay on Escherichia coli, the MIC is 500 µg/mL (≈ 998 µM).
With `O=C(/C=C/c1cccc(O)c1)N1N=C(c2ccc([N+](=O)[O-])cc2)OC1c1cc2ccccc2nc1Cl` (stereo unspecified), the MIC was 100 µg/mL (≈ 200 µM) in the assay on Streptococcus pyogenes; 100 µg/mL (≈ 200 µM) with Aspergillus clavatus; 50 µg/mL (≈ 99.8 µM) in the assay on Pseudomonas aeruginosa; 200 µg/mL (≈ 399 µM) in the assay with Aspergillus niger; 500 µg/mL (≈ 998 µM) against Candida albicans; 200 µg/mL (≈ 399 µM) in the assay on Staphylococcus aureus. In the assay on Escherichia coli, it took 25 µg/mL (≈ 49.9 µM) to inhibit growth (MIC).
On to `O=C(/C=C/c1ccc(O)cc1)N1N=C(c2ccc([N+](=O)[O-])cc2)OC1c1cc2ccccc2nc1Cl` (stereo unspecified), for which the MIC in the assay on Streptococcus pyogenes was 500 µg/mL (≈ 998 µM); in the assay on Aspergillus clavatus it was 500 µg/mL (≈ 998 µM); in the assay on Pseudomonas aeruginosa, 50 µg/mL (≈ 99.8 µM); in the assay on Aspergillus niger it was 100 µg/mL (≈ 200 µM); in the assay on Candida albicans, 500 µg/mL (≈ 998 µM); against Staphylococcus aureus, 100 µg/mL (≈ 200 µM). The same compound came in with an MIC in the assay with Escherichia coli of 250 µg/mL (≈ 499 µM).
In the case of `CC1(C)S[C@@H]2[C@H](NC(=O)[C@H](N)c3ccccc3)C(=O)N2[C@H]1C(=O)O` [AMPICILLIN], the MIC worked out at 100 µg/mL (≈ 286 µM) in the assay with Streptococcus pyogenes, 100 µg/mL (≈ 286 µM) against Pseudomonas aeruginosa, 250 µg/mL (≈ 715 µM) against Staphylococcus aureus and 100 µg/mL (≈ 286 µM) against Escherichia coli.
As for `COC1=CC(=O)C[C@@H](C)[C@]12Oc1c(Cl)c(OC)cc(OC)c1C2=O` [GRISEOFULVIN], the values for the MIC in the assay on Aspergillus clavatus, against Aspergillus niger and against Candida albicans were 100 µg/mL (≈ 283 µM), 100 µg/mL (≈ 283 µM) and 500 µg/mL (≈ 1420 µM), respectively.

The values are drawn from ChEMBL document CHEMBL3045236, “Conventional and microwave techniques for synthesis and antimicrobial studies of novel 1-[2-(2-chloro(3-quinolyl))-5-(4-nitrophenyl)-(1,3,4-oxadiazolin-3-yl)]-3-(aryl)prop-2-en-1-ones” (2012).
